Here are results for twelve compounds from PubChem BioAssay (NCI).

Common to all, as to assay: inhibition of tumour cell growth, NCI panel, 48 h
Assay [1] concerns HOP-62 NSCLC.
For assay [2], the system named is M14 melanoma.
Assay [3] relates to NCI-H23 lung.
Assay [4] deals with OVCAR-3 ovarian.
Assay [5] deals with OVCAR-8 ovarian.
The subject of assay [6] is SF-295 CNS.
In assay [7] the test system is SK-MEL-5 melanoma.
For assay [8], the system named is SK-OV-3 ovarian.
The subject of assay [9] is SW-620 colon.
In assay [10] the test system is SR leukemia.

SMILES strings stand for the structures.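 Method: 48-hour compound exposure of cells in 96-well plates, five concentrations, linear interpolation of endpoints. GI50 is the concentration that inhibits growth by half. The concentration for full growth arrest is given as TGI.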

With `O=C1OC2CCCC[C@@H]2C2C[C@]34CCCCC3[C@@H](C(=O)O4)C12` (stereo partly drawn), the TGI in assay [1], in assay [2], in assay [3], in [4], in [5] and in assay [6] was more than 100 µM each time. The TGI in [7], in [8] and in assay [9] was more than 100 µM in each case.

As to `COc1cc(/C=C/c2cc(/C=C/c3ccc(O)c(OC)c3)n(C(=O)Nc3ccc(C)cc3C)n2)ccc1O`, the GI50 in [1] was 0.442 µM; in assay [3] it was 0.275 µM; in [4] it was 0.327 µM; in assay [5], 0.562 µM; in assay [7], 0.327 µM; in [8], 0.347 µM. Also, the GI50 in assay [10] is 0.0445 µM. In addition, the TGI in assay [1] was 1.54 µM; in [3], 1.25 µM; in [4] it was 1.03 µM; in assay [5], 2.36 µM; in assay [7] it was 1.26 µM; in [8], 1.21 µM.

On to `O=c1c2cc(Br)cc(Br)c2nc(CCCl)n1CCO`, for which the TGI in assay [1], in [2], in assay [3], in [4], in assay [5] and in assay [6] was more than 100 µM throughout. The TGI in [7], in assay [8] and in assay [9] was more than 100 µM in each case.

Consider `C/C(CC(=O)NCCc1ccccc1)=N\NC(=O)C[n+]1ccccc1`, for which the TGI in assay [1], in assay [2], in assay [3], in assay [4], in assay [5] and in assay [6] was more than 100 µM throughout. Also, the TGI in assay [7], in assay [8] and in assay [9] was more than 100 µM throughout.

Turning to `O=C1/C(=C/c2cccc([N+](=O)[O-])c2)COc2ccc(Br)cc21`, the TGI in assay [1], in [3], in [4], in [5], in [6] and in assay [7] was more than 100 µM throughout. For the same compound, the TGI in [8] and in assay [9] was more than 100 µM in each case.

As for `CN(CCC#N)c1ccc(/C=C(\C#N)c2ccc(Br)cc2)cc1`, the GI50 in [3] was more than 100 µM; in assay [5], more than 100 µM; in assay [8], more than 100 µM; in assay [9] it was 3.87 µM. The TGI in assay [3], in assay [5], in assay [8] and in [9] was more than 100 µM throughout.

On to `COc1ccc(/C=C/C(=O)C(CC2CCC2)C(=O)/C=C/c2ccc(OC)c(OC)c2)cc1OC`, for which the GI50 in assay [3] was 2.19 µM; in assay [4], 1.04 µM; in [6], 2.5 µM; in assay [7], 1.77 µM; in [8] it was 2.69 µM; in assay [10] it was 1.04 µM. Also, in assay [9], the GI50 is 1.55 µM. Further, the TGI in assay [3] is 5.87 µM; in assay [4], 3.04 µM; in assay [6], 7.22 µM; in assay [7] it was 3.25 µM; in assay [8], 6.69 µM; in assay [10] it was more than 100 µM. Moreover, the TGI in assay [9] is 3.57 µM.

With `NC(=O)NCc1c(C(N)=O)ncn1Cc1ccccc1`, the TGI in assay [1], in [2], in assay [3], in assay [4], in assay [5] and in [6] was more than 100 µM in each case. Also, the TGI in [7], in [8] and in assay [9] was more than 100 µM in each case.

For `O=C(O)[C@H](NS(=O)(=O)c1ccc([N+](=O)[O-])cc1)c1ccccc1`, the TGI in [1], in assay [2], in assay [3], in assay [4], in assay [5] and in assay [6] was more than 100 µM in each case. Further, the TGI in assay [7], in assay [8] and in [9] was more than 100 µM in each case.

Regarding `CSC(C1c2ccccc2N(c2ccc(C)cc2)c2[nH]c(=O)n(C)c(=O)c21)S(=O)(=O)c1ccc(C)cc1` (stereo not drawn), the TGI in [1], in assay [2], in assay [3], in [4], in assay [5] and in [6] was more than 100 µM in each case. Besides, the TGI in [7], in [8] and in assay [9] was more than 100 µM throughout.

With `COc1cccc(C#Cc2ccccc2C#CCCCCO)c1`, the GI50 in assay [1] was 15.5 µM; in assay [3] it was 12.5 µM; in [4], 10.7 µM; in [5], 12.5 µM; in [6], 7.94 µM; in assay [7], 19.1 µM. Besides, the GI50 is 17.2 µM in assay [8], 1.95 µM in assay [10] and 17.5 µM in assay [9]. The TGI is 34.3 µM in [1]; 26.1 µM in assay [3]; 28.8 µM in [4]; 27.9 µM in [5]; 22.1 µM in assay [6]; 33.8 µM in assay [7]. For the same compound, the results for the TGI in assay [8], in assay [10] and in assay [9] were 32.5 µM, 12.1 µM and 35.9 µM, respectively.

On to `C[C@H](O)C(=O)N1CCC(CCn2c(Sc3cc4c(cc3Br)OCO4)nc3c(N)ncnc32)CC1`, for which the GI50 in [1] was 1.73 µM; in assay [2], 0.965 µM; in [3], 0.689 µM; in assay [4], 3.28 µM; in assay [5], 0.827 µM; in assay [6] it was 0.741 µM. Further, the GI50 is 2.95 µM in assay [7], 0.48 µM in [8] and 0.49 µM in assay [9]. Further, the TGI in [1] is more than 100 µM; in [2], more than 100 µM; in [3], more than 100 µM; in [4], more than 100 µM; in assay [5], more than 100 µM; in [6] it was more than 22.8 µM. Further, the TGI in [7], in assay [8] and in [9] was more than 100 µM in each case.
